Data from patent US8802597B2, “Herbicidal pyrimidines” (E I du Pont de Nemours and Company, priority 2003, dated 2014).

Tests used:
Assay in all cases: Test C flooded paddy test
Assay type in all cases: in vivo
[1] = test system: umbrella sedge (Cyperus difformis); conditions: Flood, scale 0 to 100
Protocol: (§1) At the same time, plants selected from these crop and weed species and also winter barley (Hordeum vulgare), blackgrass (Alopecurus myosuroides), canarygrass (Phalaris minor), chickweed (Stellaria media), downy brome (Bromus tectorum), green foxtail (Setaria viridis), Italian ryegrass (Lolium multiflorum), wheat (Triticum aestivum), wild oat (Avena fatua) and windgrass (Apera spica-venti) were treated with postemergence applications of some of the test chemicals formulated in the same manner. Plants ranged in height from 2 to 18 cm (1- to 4-leaf stage) for postemergence treatments. Plant species in the flooded paddy test consisted of rice (Oryza sativa), umbrella sedge (Cyperus difformis), duck salad (Heteranthera limosa) and barnyardgrass (Echinochloa crus-galli) grown to the 2-leaf stage for testing. Treated plants and controls were maintained in a greenhouse for 12 to 14 days, after which time all species were compared to controls and visually evaluated. Plant response ratings, summarized in Table C, are based on a scale of 0 to 100 where 0 is no effect and 100 is complete control. A dash (-) response means no test result.

[2] = test system: barnyardgrass (Echinochloa crus-galli); conditions: Flood
Protocol: as §1

rice (Oryza sativa) = conditions: Flood, scale 0 to 100
Protocol: as §1

[3] = test system: duck salad (Heteranthera limosa); conditions: Flood, scale 0 to 100
Protocol: as §1

[4] = 500 g ai/ha, scale 0 to 100 (0 no effect, 100 complete control)

| SMILES | Plant response rating, Sedge, Umbrella ([1]; 62 g ai/ha) | Plant response rating, Sedge, Umbrella ([1]; 125 g ai/ha) | Plant response rating, Sedge, Umbrella ([1]; 250 g ai/ha) | Plant response rating, Sedge, Umbrella ([1]; 500 g ai/ha) | Plant response rating, Barnyardgrass ([2]; 62 g ai/ha, scale 0 to 100) | Plant response rating, Barnyardgrass ([2]; 125 g ai/ha, scale 0 to 100) | Plant response rating, Barnyardgrass ([2]; 250 g ai/ha, scale 0 to 100) | Plant response rating, Barnyardgrass [2, 4] | Plant response rating, Rice (rice (Oryza sativa); 62 g ai/ha) | Plant response rating, Rice (rice (Oryza sativa); 125 g ai/ha) | Plant response rating, Rice (rice (Oryza sativa); 250 g ai/ha) | Plant response rating, Rice (rice (Oryza sativa); 500 g ai/ha) | Plant response rating, Ducksalad ([3]; 62 g ai/ha) | Plant response rating, Ducksalad ([3]; 125 g ai/ha) | Plant response rating, Ducksalad ([3]; 250 g ai/ha) | Plant response rating, Ducksalad ([3]; 500 g ai/ha) |
| --- | --- | --- | --- | --- | --- | --- | --- | --- | --- | --- | --- | --- | --- | --- | --- | --- |
| CC(C)COC(=O)c1nc(C2CC2)nc(N)c1Br [Compound 17] | 0 | 0 | 20 | 25 | 0 | 0 | 0 | 50 | 0 | 0 | 45 | 75 | 0 | 0 | 80 | 80 |
| Nc1nc(C2CC2)nc(C=O)c1Br [Compound 26] | 0 | 0 | 20 | 20 | 0 | 0 | 0 | 0 | 0 | 0 | 20 | 25 | 40 | 40 | 40 | 40 |
